In PubChem BioAssay AID2060494 (Molecular Pharmacology Branch, DTP, NCI, 2025):

System: 435261-313-R-J1-PDC complex spheroid viability
Experiment: Anticancer human tumor 435261-313-R-J1-PDC patient-derived colon adenocarcinoma cell line growth inhibition [GQUAD]
Conditions: for IC50: curve of first compound; for viability, T/C: stronger effect = lower value
Description: DNA G-quadruplex Stabilizer Agents in Combinations in Complex Spheroids
A high-throughput screen of multi-cell type tumor spheroids was designed to identify active combinations of DNA G-quadruplex stabilizer agents and targeted small molecules. Complex spheroids include a stromal component modeled by human endothelial cells (HUVEC) and fibroblasts modeled by human mesenchymal stem cells (MSCs). The concentration ranges selected for each drug and investigational agent were based upon clinically achievable concentrations if the clinical Cmax of the agent was known.
Compounds. The drugs and investigational agents: pidnarulex (CX-5461; NSC782164), APTO-253 (NSC789042), BRACO-19 (NSC847499), peposertib (NSC802822), ceralasertib (NSC780249), elimusertib (NSC800525), camonsertib (NSC841442), AZD-1390 (NSC803789), olaparib (NSC753686), talazoparib (NSC767125), ART-558 (NSC835418), sotorasib (NSC818433), MRTX-1133 (NSC836407), SN-38 (NSC673596), topotecan (NSC609699), etoposide (NSC141540), doxorubicin (NSC123127), gemcitabine (NSC613327), 5-fluorouracil (NSC19893), paclitaxel (NSC125973), vemurafenib (NSC761431), panobinostat (NSC761190), R-306465 (JNJ-16241199; NSC773264), adavosertib (NSC754352), TP-3654 (NSC805149), carboplatin (NSC241240), KSQ-4279 (NSC840948), and staurosporine (NSC755774) were obtained from the National Cancer Institute (NCI) Developmental Therapeutics Program Chemical Repository (34). The FDA-approved anticancer drug set is available from the NCI Developmental Therapeutics Program. […] The stock solutions were prepared in dimethyl sulfoxide (DMSO, Sigma-Aldrich, St. Louis, MO, cat. D2650) at 800-fold the tested concentration and stored at -70 degrees C prior to their use. All drugs and investigational agents were tested over a range starting from a high concentration at or near the clinical Cmax and decreasing in half-log increments. If the clinical Cmax for an agent had not been determined, the highest concentration tested was 10 microM.
2.3 Cell Culture. All cells were maintained in an incubator at 37 degrees C and 5% CO2 with 95% humidity. The PDC lines were cultured according to standard operating procedures established by the NCI PDMR. All PDCs were thawed and cultured in Matrigel-coated flasks prepared with a working solution of 1X Ham's F-12 nutrient mix, without supplementation (Invitrogen, cat. 11765054), 100 U/mL penicillin-streptomycin (Invitrogen, cat. 15140122), and 2.5% Matrigel (Corning Inc., cat. 354248) for the first three passages. The 857933-349-R-J2-PDC line was cultured in 6C/Colon 1B media, which includes advanced DMEM/F-12 (Thermo Fisher Scientific, cat. 12634028), 10 mM HEPES (Thermo Fisher Scientific, cat. 15630080), 1X GlutaMAX supplement (Thermo Fisher Scientific, cat. 35050061), 0.1 mg/mL primocin (InvivoGen, cat. ant-pm-2), 10% defined fetal bovine serum, heat inactivated (HyClone Laboratories Inc., cat. SH30070.03HI), 50% L-WRN conditioned media (ATCC, cat. CRL-3276), 1.25 mM N-Acetyl-L-cysteine (Sigma-Aldrich, cat. A9165), 10 mM nicotinamide (Sigma-Aldrich, cat. N0636), 1X B-27 supplement (Thermo Fisher Scientific, cat. 17504044), 1X N-2 supplement (Thermo Fisher Scientific, cat. 17502048), 10 microM Y-27632 dihydrochloride (Tocris Bioscience, cat. 1254), and 50 ng/mL human EGF recombinant protein (Thermo Fisher Scientific, cat. PHG0311). The 485176-168-R4-J1-PDC line was cultured in Panc media, which includes all 6C/Colon 1B media components plus 100 ng/mL human FGF-10 (Thermo Fisher Scientific, cat. 100-26), 500 nM SB-431542 (Selleckchem, cat. S1067), and gastrin (Tocris, cat. 3006).
[…]

[1] = second compound 0.0316 µM, first compound 0.0316 µM
[2] = second compound 0.0316 µM, first compound 0.1 µM
[3] = second compound 0.0316 µM, first compound 0.316 µM
[4] = second compound 0.0316 µM, first compound 1 µM
[5] = second compound 0.0316 µM, first compound 3.16 µM
[6] = second compound 0.0316 µM, first compound 10 µM
[7] = second compound 0.1 µM, first compound 0.0316 µM
[8] = second compound 0.1 µM, first compound 0.1 µM
[9] = second compound 0.1 µM, first compound 0.316 µM
[10] = second compound 0.1 µM, first compound 1 µM
[11] = second compound 0.1 µM, first compound 3.16 µM
[12] = second compound 0.1 µM, first compound 10 µM
[13] = second compound 0.316 µM, first compound 0.0316 µM
[14] = second compound 0.316 µM, first compound 0.1 µM
[15] = second compound 0.316 µM, first compound 0.316 µM
[16] = second compound 0.316 µM, first compound 1 µM
[17] = second compound 0.316 µM, first compound 3.16 µM
[18] = second compound 0.316 µM, first compound 10 µM
[19] = second compound 1 µM, first compound 0.0316 µM
[20] = second compound 1 µM, first compound 0.1 µM
[21] = second compound 1 µM, first compound 0.316 µM
[22] = second compound 1 µM, first compound 1 µM
[23] = second compound 1 µM, first compound 3.16 µM
[24] = second compound 1 µM, first compound 10 µM
[25] = second compound 3.16 µM, first compound 0.0316 µM
[26] = second compound 3.16 µM, first compound 0.1 µM
[27] = second compound 3.16 µM, first compound 0.316 µM
[28] = second compound 3.16 µM, first compound 1 µM
[29] = second compound 3.16 µM, first compound 3.16 µM
[30] = second compound 3.16 µM, first compound 10 µM
[31] = second compound 10 µM, first compound 0.0316 µM
[32] = second compound 10 µM, first compound 0.1 µM
[33] = second compound 10 µM, first compound 0.316 µM
[34] = second compound 10 µM, first compound 1 µM
[35] = second compound 10 µM, first compound 3.16 µM
[36] = second compound 10 µM, first compound 10 µM
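Also: spheroids exposed to the agents for seven days before readout.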
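For viability, T/C in this document: percent of vehicle control viability with DMSO wells as 100%.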

In the case of CC1COCCN1c1cc(C2(S(C)(=N)=O)CC2)nc(-c2ccnc3[nH]ccc23)n1 (stereo unspecified) + CN(C)c1ccc(Nc2c3ccc(NC(=O)CCN4CCCC4)cc3nc3cc(NC(=O)CCN4CCCC4)ccc23)cc1, the IC50 (second compound 0.0316 µM) is reported as > 10 µM, the IC50 (second compound 0.1 µM) is reported as > 10 µM and the IC50 (second compound 0.316 µM) is reported as > 10 µM. The IC50 (second compound 1 µM) was > 10 µM, the IC50 (second compound 3.16 µM) was > 10 µM and the IC50 (second compound 10 µM) was 0.0883 µM. It also gave a viability, T/C [1] of 153%, a viability, T/C [2] of 99.2% and a viability, T/C [3] of 71.8%. The viability, T/C [4] was 98%, the viability, T/C [5] was 69.2% and the viability, T/C [6] was 70.7%. For the same compound, the viability, T/C [7] was 88.2%, the viability, T/C [8] was 96.2% and the viability, T/C [9] was 106%. It also gave a viability, T/C [10] of 79.1%, a viability, T/C [11] of 76.7% and a viability, T/C [12] of 51.8%. It also gave a viability, T/C [13] of 89.4%, a viability, T/C [14] of 101% and a viability, T/C [15] of 89.8%. It also gave a viability, T/C [16] of 68.6%, a viability, T/C [17] of 64.6% and a viability, T/C [18] of 53.7%. For the same compound, the viability, T/C [19] was 109%, the viability, T/C [20] was 115% and the viability, T/C [21] was 87.6%. It also gave a viability, T/C [22] of 81.4%, a viability, T/C [23] of 79% and a viability, T/C [24] of 51.2%. The viability, T/C [25] was 61.1%, the viability, T/C [26] was 55.8% and the viability, T/C [27] was 68.3%. For the same compound, the viability, T/C [28] was 76.2%, the viability, T/C [29] was 50.6% and the viability, T/C [30] was 45.3%. For the same compound, the viability, T/C [31] was 55.3%, the viability, T/C [32] was 50.3% and the viability, T/C [33] was 32.9%. The viability, T/C [34] was 23.8%, the viability, T/C [35] was 22.6% and the viability, T/C [36] was 17%.
For COc1ccc([C@@H](O)c2cc(-c3ncnc4cc(N5CCOCC5)ccc34)c(F)cc2Cl)nn1 + CN(C)c1ccc(Nc2c3ccc(NC(=O)CCN4CCCC4)cc3nc3cc(NC(=O)CCN4CCCC4)ccc23)cc1, the IC50 (second compound 0.0316 µM) was 4.19 µM, the IC50 (second compound 0.1 µM) was 4.3 µM and the IC50 (second compound 0.316 µM) was 2.38 µM. For the same compound, the IC50 (second compound 1 µM) was 2.27 µM, the IC50 (second compound 3.16 µM) was 0.451 µM and the IC50 (second compound 10 µM) was 0.134 µM. For the same compound, the viability, T/C [1] was 99%, the viability, T/C [2] was 120% and the viability, T/C [3] was 108%. It also gave a viability, T/C [4] of 83.9%, a viability, T/C [5] of 56.6% and a viability, T/C [6] of 35.8%. The viability, T/C [7] was 107%, the viability, T/C [8] was 100% and the viability, T/C [9] was 85.3%. The viability, T/C [10] was 68.9%, the viability, T/C [11] was 57.9% and the viability, T/C [12] was 35.5%. For the same compound, the viability, T/C [13] was 94.3%, the viability, T/C [14] was 137% and the viability, T/C [15] was 79.7%. It also gave a viability, T/C [16] of 63.9%, a viability, T/C [17] of 55.3% and a viability, T/C [18] of 26.7%. The viability, T/C [19] was 72%, the viability, T/C [20] was 76.4% and the viability, T/C [21] was 70.9%. For the same compound, the viability, T/C [22] was 64.5%, the viability, T/C [23] was 44.2% and the viability, T/C [24] was 23.9%. It also gave a viability, T/C [25] of 59.7%, a viability, T/C [26] of 48% and a viability, T/C [27] of 69%. The viability, T/C [28] was 30%, the viability, T/C [29] was 24.6% and the viability, T/C [30] was 11.5%. It also gave a viability, T/C [31] of 56.1%, a viability, T/C [32] of 59.8% and a viability, T/C [33] of 26.9%. For the same compound, the viability, T/C [34] was 14.7%, the viability, T/C [35] was 8.59% and the viability, T/C [36] was 5.21%.
In the case of O=C(c1cc(Cc2n[nH]c(=O)c3ccccc23)ccc1F)N1CCN(C(=O)C2CC2)CC1 + CN(C)c1ccc(Nc2c3ccc(NC(=O)CCN4CCCC4)cc3nc3cc(NC(=O)CCN4CCCC4)ccc23)cc1, the IC50 (second compound 0.0316 µM) is reported as > 10 µM, the IC50 (second compound 0.1 µM) is reported as > 10 µM and the IC50 (second compound 0.316 µM) is reported as > 10 µM. For the same compound, the IC50 (second compound 1 µM) was > 10 µM, the IC50 (second compound 3.16 µM) was > 10 µM and the IC50 (second compound 10 µM) was < 0.0316 µM. For the same compound, the viability, T/C [1] was 96%, the viability, T/C [2] was 133% and the viability, T/C [3] was 84.8%. It also gave a viability, T/C [4] of 80.8%, a viability, T/C [5] of 123% and a viability, T/C [6] of 89.4%. The viability, T/C [7] was 101%, the viability, T/C [8] was 83.7% and the viability, T/C [9] was 118%. The viability, T/C [10] was 102%, the viability, T/C [11] was 90% and the viability, T/C [12] was 81.9%. The viability, T/C [13] was 109%, the viability, T/C [14] was 92.5% and the viability, T/C [15] was 97.8%. The viability, T/C [16] was 84.2%, the viability, T/C [17] was 85.2% and the viability, T/C [18] was 69.9%. For the same compound, the viability, T/C [19] was 85%, the viability, T/C [20] was 78% and the viability, T/C [21] was 70.1%. The viability, T/C [22] was 70%, the viability, T/C [23] was 95.8% and the viability, T/C [24] was 69.2%. It also gave a viability, T/C [25] of 80.5%, a viability, T/C [26] of 53.2% and a viability, T/C [27] of 66.8%. The viability, T/C [28] was 60%, the viability, T/C [29] was 77.4% and the viability, T/C [30] was 57.6%. The viability, T/C [31] was 37.3%, the viability, T/C [32] was 46.2% and the viability, T/C [33] was 31%. For the same compound, the viability, T/C [34] was 49.3%, the viability, T/C [35] was 36.4% and the viability, T/C [36] was 32.9%.
